Assay results published in US20220280542A1, “PHOSPHORAMIDATES FOR THE TREATMENT OF HEPATITIS B VIRUS” (priority 2016, published 2022).

How the values were obtained:
Type in all cases: cell-based
[1] = Cytotoxicity (CC50) Huh-7; settings: human, Huh-7 cells
[2] = Cytotoxicity (CC50) BxPC3; settings: human, BxPC3 cells
[3] = Cytotoxicity (CC50) HepG2; settings: human, HepG2 cells
[4] = Cytotoxicity by XTT staining in the HBV efficacy assay; settings: human, HepG2.2.15 cells
Procedure: HepG2.2.15 cells (100 μL) in RPMI1640 medium with 10% fetal bovine serum was added to all wells of a 96-well plate at a density of 1×10^4 cells per well and the plate was incubated at 37° C. in an environment of 5% CO2 for 24 hours. Following incubation, six ten-fold serial dilutions of test compound prepared in RPMI1640 medium with 10% fetal bovine serum were added to individual wells of the plate in triplicate. Six wells in the plate received medium alone as a virus only control. The plate was incubated for 6 days at 37° C. in an environment of 5% CO2. The culture medium was changed on day 3 with medium containing the indicated concentration of each compound. One hundred microliters of supernatant was collected from each well for analysis of viral DNA by qPCR and cytotoxicity was evaluated by XTT staining of the cell culture monolayer on the sixth day.
The 50% cytotoxic concentration for the test materials are derived by measuring the reduction of the tetrazolium dye XTT in the treated tissue culture plates. XTT is metabolized by the mitochondrial enzyme NADPH oxidase to a soluble formazan product in metabolically active cells. XTT solution was prepared daily as a stock of 1 mg/mL in PBS. Phenazine methosulfate (PMS) stock solution was prepared at 0.15 mg/mL in PBS and stored in the dark at −20° C. XTT/PMS solution was prepared immediately before use by adding 40 μL of PMS per 1 mL of XTT solution. Fifty microliters of XTT/PMS was added to each well of the plate and the plate incubated for 2-4 hours at 37° C. The 2-4 hour incubation has been empirically determined to be within linear response range for XTT dye reduction with the indicated numbers of cells for each assay. Adhesive plate sealers were used in place of the lids, the sealed plate was inverted several times to mix the soluble formazan product and the plate was read at 450 nm (650 nm reference wavelength) with a Molecular Devices SpectraMax Plus 384 spectrophotometer. Data were collected by Softmax 4.6 software and imported into an Excel spreadsheet for analysis.

[5] = Cytotoxicity (CC50) Vero; settings: African green monkey, Vero cells
[6] = Cytotoxicity (CC50) A549; settings: human, A549 cells
[7] = Cytotoxicity (CC50) IEC-6; settings: rat, IEC-6 cells
[8] = Cytotoxicity (CC50) A204; settings: human, A204 cells
[9] = Cytotoxicity (CC50) CEM; settings: human, CEM cells
[10] = Cytotoxicity (CC50) H9c; settings: rat, H9c cells

**Q.** For Nc1ccn([C@@H]2CS[C@H](CO)O2)c(=O)n1 [3TC (Lamivudine), Lamivudine, reference compound], which CC50 [1] is on record?
**A.** Its CC50 is over 400 µM.

**Q.** What about the CC50 [2] of the same compound?
**A.** Its CC50 is over 400 µM.

**Q.** And the CC50 [3]?
**A.** The CC50 was over 400 µM.

**Q.** And the CC50 at 6 days [4]?
**A.** The CC50 at 6 days was over 10 µM.

**Q.** Which results are given for Cc1cn([C@H]2O[C@@H](CO)[C@H](O)[C@H]2F)c(=O)[nH]c1=O [EIDD-02020, Clevudine, reference compound]?
**A.** CC50 [5]: > 400 µM; CC50 [6]: > 400 µM; CC50 [7]: > 400 µM; CC50 [1]: > 400 µM; CC50 [2]: > 400 µM; CC50 [8]: > 400 µM; CC50 [9]: > 400 µM; CC50 [3]: > 400 µM; CC50 [10]: > 400 µM; CC50 at 6 days [4]: > 100 µM

**Q.** Which CC50 [5] does the source give for Cc1cn([C@H]2O[C@@H](CO[P@@](=O)(N[C@@H](C)C(=O)OC(C)C)Oc3ccccc3)[C@H](O)[C@H]2F)c(=O)[nH]c1=O [EIDD-02173] here?
**A.** The CC50 was over 400 µM.

**Q.** What about the CC50 [6] of the same compound?
**A.** The CC50 was over 400 µM.

**Q.** And the CC50 [7]?
**A.** Its CC50 is 307 µM.

**Q.** And the CC50 [1]?
**A.** Its CC50 is over 400 µM.

**Q.** And the CC50 [2]?
**A.** Its CC50 is over 400 µM.

**Q.** What about the CC50 [8] of the same compound?
**A.** Its CC50 is 330 µM.

**Q.** And the CC50 [9]?
**A.** Its CC50 is 140 µM.

**Q.** What about the CC50 [3] of the same compound?
**A.** The CC50 was over 400 µM.

**Q.** And the CC50 [10]?
**A.** The CC50 was 344 µM.

**Q.** And the CC50 at 6 days [4]?
**A.** Its CC50 at 6 days is over 100 µM.

**Q.** What does the source list for Cc1cn([C@H]2O[C@@H](CO[P@](=O)(N[C@@H](C)C(=O)OC(C)C)Oc3ccccc3)[C@H](O)[C@H]2F)c(=O)[nH]c1=O [EIDD-02174]?
**A.** CC50 [5]: > 400 µM; CC50 [6]: > 400 µM; CC50 [7]: 338 µM; CC50 [1]: 290 µM; CC50 [2]: > 400 µM; CC50 [8]: 374 µM; CC50 [9]: > 400 µM; CC50 [3]: > 400 µM; CC50 [10]: 311 µM; CC50 at 6 days [4]: > 100 µM

**Q.** Which CC50 at 6 days [4] does the source give for Cc1cn([C@H]2O[C@@H](CO[P@@](=O)(N[C@@H](C)C(=O)OC(C)C)Oc3ccccc3)[C@H](O[P@@](=O)(N[C@@H](C)C(=O)OC(C)C)Oc3ccccc3)[C@H]2F)c(=O)[nH]c1=O [EIDD-02308] here?
**A.** Its CC50 at 6 days is over 100 µM.

**Q.** Which CC50 at 6 days [4] does the source give for Cc1cn([C@H]2O[C@@H](CO[P@](=O)(N[C@@H](C)C(=O)OC(C)C)Oc3ccccc3)[C@H](O[P@](=O)(N[C@@H](C)C(=O)OC(C)C)Oc3ccccc3)[C@H]2F)c(=O)[nH]c1=O [EIDD-02309] here?
**A.** Its CC50 at 6 days is 85.1 µM.

**Q.** Which CC50 at 6 days [4] does the source give for Cc1cn([C@H]2O[C@@H](CO)C(O)C2F)c(=S)[nH]c1=O (stereo partly drawn) [EIDD-02333-1] here?
**A.** Its CC50 at 6 days is over 100 µM.

**Q.** With Cc1cn([C@H]2O[C@@H](CO[P@](=O)(N[C@@H](C)C(=O)OC(C)C)Oc3ccccc3)C(O)C2F)c(=S)[nH]c1=O (stereo partly drawn) [EIDD-02334-1] as the compound, how does the CC50 at 6 days [4] read?
**A.** The CC50 at 6 days was over 100 µM.

**Q.** For Cc1cn([C@H]2O[C@@H](CO[P@@](=O)(N[C@@H](C)C(=O)OC(C)C)Oc3ccccc3)C(O)C2F)c(=S)[nH]c1=O (stereo partly drawn) [EIDD-02335-1], which CC50 at 6 days [4] is on record?
**A.** Its CC50 at 6 days is over 100 µM.
